The source of these data is patent US8354419B2, “Benzimidazole analogues for the treatment or prevention of flavivirus infections” (Vertex Pharmaceuticals Incorporated, priority 2009, dated 2013).

The subject of one test is HCV (Ib) RNA replication. The test is described as follows: Cell-based luciferase reporter HCV (1b) RNA replication assay (replicon cell lines Huh-7 5.2 and ET). Further details: species or system Hepatitis C virus. As to conditions: HCV 1b genotype replicon, luciferase readout, 4 days incubation; read-out: EC50_1b. The text has this:
Cell-Based Luciferase Reporter HCV (Ib) RNA Replication Assay Cell Culture
Replicon cell lines Huh-7, 5.2 and ET which are derived from the Huh-7 hepatocarcinoma cell line are maintained in culture as generally described in Krieger, N; Lohmann, V; Bartenschlager, R. Enhancement of hepatitis C virus RNA replication by cell culture-adaptive mutations. J. Virol. 2001, 75, 4614-4624. The Huh-7, 5.2 cells contain the highly cell culture-adapted replicon I389luc-ubi-neo/NS3-3′/5.1 construct that carries, in addition to the neomycin gene, an integrated copy to the firefly luciferase gene (Krieger, N; Lohmann, V; Bartenschlager, R. Enhancement of hepatitis C virus RNA replication by cell culture-adaptive mutations. J. Virol. 2001, 75, 4614-4624). This cell line allows measurement of HCV RNA replication and translation by measuring luciferase activity. It has been previously shown that the luciferase activity tightly follows the replicon RNA level in these cells (Krieger, N; Lohmann, V; Bartenschlager, R. Enhancement of hepatitis C virus RNA replication by cell culture-adaptive mutations. J. Virol. 2001, 75, 4614-4624). The Huh-7, ET cell line has the same features as those mentioned for Huh-7, 5.2 cell line, except that ET cells are more robust and contain an adaptative mutation in the HCV NS4B gene instead of NS5A. Both cell lines are maintained in cultures at a sub-confluent level (<85%) as the level of replicon RNA is highest in actively proliferating cells. The culture media used for cell passaging consist of DMEM (Gibco BRL Laboratories, Mississauga, ON, Canada) supplemented with 10% foetal bovine serum with 1% penicillin/streptomycin, 1% glutamine, 1% sodium pyruvate, 1% non-essential amino acids, and 180 ug/ml of G418 final concentration. Cells are incubated at 37° C., in an atmosphere of 5% CO2 and passaged twice a week to maintain sub-confluence.
Approximately 3000 viable Huh-7, 5.2 or ET cells (100 μl) are plated per well in a white opaque 96-well microtiter plate. The cell culture media used for the assay is the same as described above except that it contains no G418 and no phenol red. After an incubation period of 3-4 hours at 37° C. in a 5% CO2 incubator, compounds (100 μl) are added at various concentrations. Cells are then further incubated for 4 days at 37° C. in a 5% CO2 incubator. Thereafter, the culture media is removed and cells are lysed by the addition of 95 μL of the luciferase buffer (luciferin substrate in buffered detergent). Cell lysates are incubated at room temperature and protected from direct light for at least 10 minutes. Plates are read for luciferase counts using a luminometer (Wallac MicroBeta Trilux, Perkin ELmer™, MA, USA).
The 50% inhibitory concentrations (IC50s) for inhibitory effect are determined from dose response curves using eleven concentrations per compound in duplicate. Curves are fitted to data points using nonlinear regression analysis, and IC50s are interpolated from the resulting curve using GraphPad Prism software, version 2.0 (GraphPad Software Inc., San Diego, Calif., USA).
Table 2 show compounds representative of the present invention and the EC50 values against the HCV 1b genotype.
(In a reporter assay the amount or activity of a reporter protein is the signal.)
`COC(=O)NC(C(=O)N1CCC[C@H]1c1nc2ccc(-c3ccc(-c4ccc5nc([C@@H]6CCCN6C(=O)[C@@H](NC(=O)OC)C(C)C)[nH]c5c4)cc3)cc2[nH]1)C(C)(C)C` (stereo partly drawn) [Compound 212]: the EC50 is at most 5 nM.

Still in this test, the particulars now being: Hepatitis C virus, Huh-7, 96 h, HCV 1b genotype replicon, luciferase readout, 4 days incubation; read-out: EC50_1b.
Consider `C(#Cc1ccc2[nH]c([C@@H]3CCCN3CCC3CCOCC3)nc2c1)c1ccc2[nH]c([C@@H]3CCCN3CCC3CCOCC3)nc2c1` [Compound 138], for which the EC50 fell in the range of 5 to 5000 nM. As to `COC(=O)N[C@H](C(=O)N1CCC[C@H]1c1nc2cc(C#Cc3ccc4[nH]c([C@@H]5CCCN5C(=O)[C@@H](NC(=O)OC)[C@@H](C)OC)nc4c3)ccc2[nH]1)[C@@H](C)OC` [Compound 206], the EC50 was at most 5 nM. On the same count and under the same terms, with `COC(=O)N[C@H](C(=O)N1CCC[C@H]1c1nc2ccc(CCc3ccc4nc([C@@H]5CCCN5C(=O)[C@@H](NC(=O)OC)C(C)C)[nH]c4c3)cc2[nH]1)C(C)C` [Compound 64] the figure was at most 5 nM; with `COC(=O)N[C@H](C(=O)N1CCC[C@H]1c1nc2cc(-c3ccc(-c4ccc5nc([C@@H]6CCCN6C(=O)[C@@H](NC(=O)OC)C(C)C)[nH]c5c4)c4c3OCCO4)ccc2[nH]1)C(C)C` [Compound 172], at most 5 nM; with `CC(C)(C)OC(=O)N1CCC[C@H]1c1nc2cc(-c3ccc(-c4ccc5[nH]c([C@@H]6CCCN6C(=O)OC(C)(C)C)nc5c4)s3)ccc2[nH]1` [Compound 16, (2S,2′S)-tert-butyl-2,2′-(5,5′-(thiophene-2,5-diyl)bis(1H-benzo[d]imidazole-5,2-diyl))dipyrrolidine-1-carboxylate], 5 to 5000 nM. Same read-out and setting: with `CC(C)[C@@H](NC(=O)O[C@H]1CCOC1)C(=O)N1CCC[C@H]1c1nc2cc(C#Cc3ccc4[nH]c([C@@H]5CCCN5C(=O)[C@H](NC(=O)O[C@H]5CCOC5)C(C)C)nc4c3)ccc2[nH]1` [Compound 82] the figure was 5 to 5000 nM; with `COC(=O)N[C@H](C(=O)N1C[C@@H](C)C[C@H]1c1nc2cc(-c3cc(F)c(-c4ccc5[nH]c([C@@H]6C[C@H](C)CN6C(=O)[C@H](C(C)C)N(C)C(=O)OC)nc5c4)cc3F)ccc2[nH]1)C(C)C` [Compound 281], at most 5 nM; with `O=C(CC1CCCCC1)N1CCC[C@H]1c1nc2cc(C#Cc3ccc4[nH]c([C@@H]5CCCN5C(=O)CC5CCCCC5)nc4c3)ccc2[nH]1` [Compound 103], 5 to 5000 nM. Same read-out and setting: as for `COC(=O)N(C)[C@H](C(=O)N1C[C@@H](C)C[C@H]1c1nc2cc(-c3cc(F)c(-c4ccc5[nH]c([C@@H]6C[C@H](C)CN6C(=O)[C@H](C(C)C)N(C)C(=O)OC)nc5c4)cc3F)ccc2[nH]1)C(C)C` [Compound 282], the figure is at most 5 nM; as for `COC(=O)NC(C(=O)N1CCC[C@H]1c1nc2ccc(-c3ccc(-c4ccc5nc([C@@H]6CCCN6C(=O)[C@@H](NC(=O)OC)C(C)C)[nH]c5c4)cc3)cc2[nH]1)C(C)(C)C` (stereo partly drawn) [Compound 211], at most 5 nM; as for `Cn1c([C@@H]2CCCN2)nc2cc(-c3ccc(-c4ccc5c(c4)nc([C@@H]4CCCN4)n5C)cc3)ccc21` [Compound 227], above 5000 nM. For `COC(=O)N[C@H](C(=O)N1CCCC[C@H]1c1nc2cc(C#Cc3ccc4[nH]c([C@@H]5CCCN5C(=O)[C@@H](NC(=O)OC)C(C)C)nc4c3)ccc2[nH]1)C(C)C` [Compound 60], the EC50 was at most 5 nM. Still for that read-out and setting: as for `COC(=O)N[C@@H](C)C(=O)N1CCC[C@H]1c1nc2cc(C#Cc3ccc4[nH]c([C@@H]5CCCN5C(=O)[C@@H](NC(=O)OC)C(C)C)nc4c3)ccc2[nH]1` [Compound 53], the figure is at most 5 nM; as for `COC(=O)N[C@H](C(=O)N1CCC[C@H]1c1nc2cc(-c3cc(C)c(-c4ccc5nc([C@@H]6CCCN6C(=O)[C@@H](NC(=O)OC)C(C)C)[nH]c5c4)cc3C)ccc2[nH]1)C(C)C` [Compound 14, ((S)-1-{(S)-2-[5-(4-{2-[(S)-1-((S)-2-Methoxycarbonylamino-3-methyl-butyryl)-pyrrolidin-2-yl]-1H-benzoimidazol-5-yl}-2,5-dimethyl-phenyl)-1H-benzoimidazol-2-yl]-pyrrolidine-1-carbonyl}-2-methyl-propyl)-carbamicacid methyl ester], at most 5 nM. Still for that read-out and setting: as for `O=C(OCc1ccccc1)N1CCC[C@H]1c1nc2cc(C#Cc3ccc4[nH]c([C@@H]5CCCN5C(=O)OCc5ccccc5)nc4c3)ccc2[nH]1` [Compound 31, (S)-2-{5-[2-((S)-1-Benzyloxycarbonyl-pyrrolidin-2-yl)-1H-benzoimidazol-5-ylethynyl]-1H-benzoimidazol-2-yl}-pyrrolidine-1-carboxylic acid benzyl ester], the figure is 5 to 5000 nM.

As for `COC(=O)N[C@H](C(=O)N1CCC[C@H]1c1nc2cc(-c3cc(C#N)c(-c4ccc5[nH]c([C@@H]6CCCN6C(=O)[C@@H](NC(=O)OC)C(C)C)nc5c4)cc3Cl)ccc2[nH]1)C(C)C` [Compound 154], the EC50 was at most 5 nM. Regarding `CN1CCC[C@H]1C(=O)N1CCCC1c1nc2ccc(C#Cc3ccc4[nH]c([C@@H]5CCCN5C(=O)[C@@H]5CCCN5C)nc4c3)cc2[nH]1` (stereo partly drawn) [Compound 66], the EC50 is 5 to 5000 nM.

`COC(=O)N[C@H](C(=O)N1CCC[C@H]1c1nc2cc(C#Cc3ccc4[nH]c([C@@H]5CCCN5C(=O)[C@@H](NC(=O)OC)C(C)(C)C)nc4c3)ccc2[nH]1)C(C)C` [Compound 36, {(S)-1-[(S)-2-(5-{2-[(S)-1-((S)-2-Methoxycarbonylamino-3-methyl-butyryl)-pyrrolidin-2-yl]-1H-benzoimidazol-5-ylethynyl}-1H-benzoimidazol-2-yl)-pyrrolidine-1-carbonyl]-2,2-dimethyl-propyl}-carbamic acid methyl ester]: the EC50 is at most 5 nM. Consider `COC(=O)N[C@@H](C)C(=O)N1CCC[C@H]1c1nc2cc(C#Cc3ccc4c(c3)N=C([C@@H]3CCCN3C(=O)C(c3ccccc3)N(C)C)C4)ccc2[nH]1` (stereo partly drawn) [Compound 59], for which the EC50 was at most 5 nM.

Consider `CC(=O)NC1(C(=O)N2CCC[C@H]2c2nc3cc(C#Cc4ccc5[nH]c([C@@H]6CCCN6C(=O)C6(NC(C)=O)CC6)nc5c4)ccc3[nH]2)CC1` [Compound 110], for which the EC50 is above 5000 nM. Regarding `O=C(NC1CC1)c1nc2cc(C#Cc3ccc4[nH]c([C@@H]5CCCN5C(=O)OCc5ccccc5)nc4c3)ccc2[nH]1` [Compound 51], the EC50 was 5 to 5000 nM. Still for that read-out and setting: with `COC(=O)N[C@H](C(=O)N1CC2(CC2)C[C@H]1c1nc2cc(-c3ccc(-c4ccc5[nH]c([C@@H]6CC7(CC7)CN6C(=O)[C@@H](NC(=O)OC)C(C)C)nc5c4)cc3)ccc2[nH]1)C(C)C` [Compound 245] the figure was at most 5 nM; with `CC(C)[C@H](NC(=O)[C@@H]1CCC(=O)N1)C(=O)N1CCC[C@H]1c1nc2cc(C#Cc3ccc4[nH]c([C@@H]5CCCN5C(=O)[C@@H](NC(=O)[C@@H]5CCC(=O)N5)C(C)C)nc4c3)ccc2[nH]1` [Compound 87], above 5000 nM. Still for that read-out and setting: with `CC[C@H](NC(C)=O)C(=O)N1CCC[C@H]1c1nc2cc(C#Cc3ccc4[nH]c([C@@H]5CCCN5C(=O)[C@H](CC)NC(C)=O)nc4c3)ccc2[nH]1` [Compound 111] the figure was 5 to 5000 nM; with `CC(C)(C)OC(=O)NC1(C(=O)N2CCC[C@H]2c2nc3cc(C#Cc4ccc5[nH]c([C@@H]6CCCN6C(=O)C6(NC(=O)OC(C)(C)C)CCC6)nc5c4)ccc3[nH]2)CCC1` [Compound 130], 5 to 5000 nM; with `O=C(OCc1ccccc1)N1CCCC[C@H]1c1nc2cc(C#Cc3ccc4nc([C@@H]5CCCN5C(=O)OCc5ccccc5)[nH]c4c3)ccc2[nH]1` [Compound 49], 5 to 5000 nM.
